Source: paper PMC6347702 (Proceedings of the National Academy of Sciences of the …, 2019)

Experiments:
Assay in all cases: spectrophotometric enzyme assay, recombinant human enzyme, […] ATP-Mg2+
Format in all cases: biochemical
hexokinase 1 (∆21-hHK1) = target: T1, hexokinase 1 (∆21-hHK1) (Homo sapiens, UniProt P19367)
T1 sequence (P19367 22-917): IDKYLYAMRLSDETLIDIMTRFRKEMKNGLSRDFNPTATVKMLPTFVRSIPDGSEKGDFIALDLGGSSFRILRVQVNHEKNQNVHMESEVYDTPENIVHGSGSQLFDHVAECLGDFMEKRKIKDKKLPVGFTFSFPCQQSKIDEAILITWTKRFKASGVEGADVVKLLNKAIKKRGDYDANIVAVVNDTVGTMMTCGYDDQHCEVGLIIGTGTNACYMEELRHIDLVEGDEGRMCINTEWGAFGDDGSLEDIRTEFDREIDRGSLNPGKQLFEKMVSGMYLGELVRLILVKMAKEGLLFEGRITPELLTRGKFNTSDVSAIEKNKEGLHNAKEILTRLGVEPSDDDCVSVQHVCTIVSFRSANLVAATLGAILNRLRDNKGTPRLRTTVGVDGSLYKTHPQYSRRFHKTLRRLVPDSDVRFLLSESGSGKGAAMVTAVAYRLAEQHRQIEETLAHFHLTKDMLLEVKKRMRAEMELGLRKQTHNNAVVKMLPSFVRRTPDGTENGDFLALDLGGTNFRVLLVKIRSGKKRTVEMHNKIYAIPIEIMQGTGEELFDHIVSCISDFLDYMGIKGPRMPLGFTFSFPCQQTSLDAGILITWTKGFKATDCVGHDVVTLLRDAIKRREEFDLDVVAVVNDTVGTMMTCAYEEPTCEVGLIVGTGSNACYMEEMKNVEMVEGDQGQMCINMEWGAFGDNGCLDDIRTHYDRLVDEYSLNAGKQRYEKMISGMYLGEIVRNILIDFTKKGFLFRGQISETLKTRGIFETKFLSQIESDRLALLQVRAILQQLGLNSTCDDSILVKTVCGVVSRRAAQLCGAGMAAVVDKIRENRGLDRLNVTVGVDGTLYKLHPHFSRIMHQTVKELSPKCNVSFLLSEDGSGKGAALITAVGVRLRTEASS

hexokinase 2 (∆28-hHK2) = target: T2, hexokinase 2 (∆28-hHK2) (Homo sapiens, UniProt P52789)
T2 sequence (P52789 29-917): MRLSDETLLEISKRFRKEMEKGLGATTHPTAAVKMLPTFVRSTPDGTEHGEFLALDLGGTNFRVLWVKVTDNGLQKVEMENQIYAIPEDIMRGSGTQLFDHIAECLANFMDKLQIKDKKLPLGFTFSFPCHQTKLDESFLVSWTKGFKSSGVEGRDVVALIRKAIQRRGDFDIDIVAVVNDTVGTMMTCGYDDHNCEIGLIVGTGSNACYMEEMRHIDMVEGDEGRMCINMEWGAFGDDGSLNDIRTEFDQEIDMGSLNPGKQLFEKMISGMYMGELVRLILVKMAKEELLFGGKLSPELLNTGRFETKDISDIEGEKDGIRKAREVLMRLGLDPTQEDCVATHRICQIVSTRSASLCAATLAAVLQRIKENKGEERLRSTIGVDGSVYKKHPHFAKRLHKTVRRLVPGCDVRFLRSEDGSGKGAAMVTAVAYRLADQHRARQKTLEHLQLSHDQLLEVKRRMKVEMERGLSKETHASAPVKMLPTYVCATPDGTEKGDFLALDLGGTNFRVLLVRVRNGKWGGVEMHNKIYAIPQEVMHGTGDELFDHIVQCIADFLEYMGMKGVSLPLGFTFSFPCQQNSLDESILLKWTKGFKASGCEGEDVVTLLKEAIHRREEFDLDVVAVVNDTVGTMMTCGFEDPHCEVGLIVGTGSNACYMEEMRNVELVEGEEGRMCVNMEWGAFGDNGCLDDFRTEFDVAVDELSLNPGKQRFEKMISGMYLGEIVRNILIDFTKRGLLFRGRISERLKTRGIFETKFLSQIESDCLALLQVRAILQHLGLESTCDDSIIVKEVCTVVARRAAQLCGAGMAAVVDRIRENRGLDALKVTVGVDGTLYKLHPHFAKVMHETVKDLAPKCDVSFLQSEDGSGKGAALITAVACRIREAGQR

hexokinase 3 (hHK3) = target: T3, hexokinase 3 (hHK3) (Homo sapiens, UniProt P52790)
T3 sequence (P52790 1-923): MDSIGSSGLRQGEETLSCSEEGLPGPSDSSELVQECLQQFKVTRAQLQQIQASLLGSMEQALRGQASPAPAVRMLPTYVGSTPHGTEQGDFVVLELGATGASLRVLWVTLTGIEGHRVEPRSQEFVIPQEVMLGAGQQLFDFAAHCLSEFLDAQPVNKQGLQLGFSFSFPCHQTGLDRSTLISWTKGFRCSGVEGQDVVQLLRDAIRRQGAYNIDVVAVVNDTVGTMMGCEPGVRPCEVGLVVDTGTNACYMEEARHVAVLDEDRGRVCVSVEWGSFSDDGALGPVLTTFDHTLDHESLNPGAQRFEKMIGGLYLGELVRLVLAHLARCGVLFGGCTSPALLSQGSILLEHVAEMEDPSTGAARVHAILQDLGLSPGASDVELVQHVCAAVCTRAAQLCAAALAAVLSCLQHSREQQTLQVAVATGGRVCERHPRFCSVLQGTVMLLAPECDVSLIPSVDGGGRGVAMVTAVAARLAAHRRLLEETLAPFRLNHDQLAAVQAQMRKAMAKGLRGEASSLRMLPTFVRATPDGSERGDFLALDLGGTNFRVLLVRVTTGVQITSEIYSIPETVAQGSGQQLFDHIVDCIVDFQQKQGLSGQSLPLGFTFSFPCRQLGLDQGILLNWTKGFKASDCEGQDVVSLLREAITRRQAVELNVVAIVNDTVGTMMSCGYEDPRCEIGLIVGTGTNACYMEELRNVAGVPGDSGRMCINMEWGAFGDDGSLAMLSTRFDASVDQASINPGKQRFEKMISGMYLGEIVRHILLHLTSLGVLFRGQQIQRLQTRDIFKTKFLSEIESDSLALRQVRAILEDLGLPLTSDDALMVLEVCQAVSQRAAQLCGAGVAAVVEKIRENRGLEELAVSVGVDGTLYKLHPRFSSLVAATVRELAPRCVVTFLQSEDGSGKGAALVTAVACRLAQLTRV

Structure (SMILES): O=P(O)(O)OC[C@H]1OC[C@H](O)[C@@H](O)[C@@H]1O [1,5AG6P, 1,5-anhydroglucitol-6-phosphate]
- Ki (hexokinase 1 (∆21-hHK1)): 53 ± 2 µM
- Ki (hexokinase 2 (∆28-hHK2)): 96 ± 3 µM
- Ki (hexokinase 3 (hHK3)): 134 ± 9 µM
